Assay results taken from PubChem BioAssay AID1918993 (Molecular Pharmacology Branch, DTP, NCI, 2023).
Where “and” joins values, the source holds several entries; their conditions need not be identical. Equal values may be shown once.

Tested on: 233499-124-R-J3-PDC complex spheroid growth
Experiment: Anticancer human tumor 233499-124-R-J3-PDC patient-derived colon adenocarcinoma cell line growth inhibition [AhR]
Details: for viability, T/C: stronger effect = lower value
Summary of the method: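 Agents were dosed in half-log steps down from roughly clinical Cmax, or from 10 microM where Cmax was unknown, alone and with AhR antagonists. Read-out: percent test/control growth of tumor spheroids containing HUVEC and MSC stromal cells.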

[1] = curve of first compound, second compound 0.1 µM
[2] = curve of first compound, second compound 0.316 µM
[3] = curve of first compound, second compound 1 µM
[4] = curve of first compound, second compound 3.16 µM
[5] = curve of first compound, second compound 10 µM
[6] = second compound 0.1 µM, first compound 0.0316 µM
[7] = second compound 0.1 µM, first compound 0.1 µM
[8] = second compound 0.1 µM, first compound 0.316 µM
[9] = second compound 0.1 µM, first compound 1 µM
[10] = second compound 0.1 µM, first compound 3.16 µM
[11] = second compound 0.1 µM, first compound 10 µM
[12] = second compound 0.316 µM, first compound 0.0316 µM
[13] = second compound 0.316 µM, first compound 0.1 µM
[14] = second compound 0.316 µM, first compound 0.316 µM
[15] = second compound 0.316 µM, first compound 1 µM
[16] = second compound 0.316 µM, first compound 3.16 µM
[17] = second compound 0.316 µM, first compound 10 µM
[18] = second compound 1 µM, first compound 0.0316 µM
[19] = second compound 1 µM, first compound 0.1 µM
[20] = second compound 1 µM, first compound 0.316 µM
[21] = second compound 1 µM, first compound 1 µM
[22] = second compound 1 µM, first compound 3.16 µM
[23] = second compound 1 µM, first compound 10 µM
[24] = second compound 3.16 µM, first compound 0.0316 µM
[25] = second compound 3.16 µM, first compound 0.1 µM
[26] = second compound 3.16 µM, first compound 0.316 µM
[27] = second compound 3.16 µM, first compound 1 µM
[28] = second compound 3.16 µM, first compound 3.16 µM
[29] = second compound 3.16 µM, first compound 10 µM
[30] = second compound 10 µM, first compound 0.0316 µM
[31] = second compound 10 µM, first compound 0.1 µM
[32] = second compound 10 µM, first compound 0.316 µM
[33] = second compound 10 µM, first compound 1 µM
[34] = second compound 10 µM, first compound 3.16 µM
[35] = second compound 10 µM, first compound 10 µM
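Note: spheroids exposed to agents for seven days before reading.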

Compound O=C(C=Cn1cnc(-c2cc(C(F)(F)F)cc(C(F)(F)F)c2)n1)NNc1cnccn1 + CC(CO)NC(=O)c1cc(-c2ccc(Cl)cc2)nn(-c2cnn(C)c2)c1=O has an IC50 [1] greater than 3 µM, an IC50 [2] greater than 3 µM and an IC50 [3] greater than 3 µM. It also gave an IC50 [4] greater than 3 µM, an IC50 [5] of 2.59 µM and a viability, T/C (second compound 0.1 µM, first compound 0.00949 µM) of 92.4%. It also gave a viability, T/C (second compound 0.1 µM, first compound 0.03 µM) of 102%, a viability, T/C (second compound 0.1 µM, first compound 0.0949 µM) of 92.2% and a viability, T/C (second compound 0.1 µM, first compound 0.3 µM) of 95.1%. For the same compound, the viability, T/C (second compound 0.1 µM, first compound 0.949 µM) was 82.3%, the viability, T/C (second compound 0.1 µM, first compound 3 µM) was 59.6% and the viability, T/C (second compound 0.316 µM, first compound 0.00949 µM) was 93.8%. For the same compound, the viability, T/C (second compound 0.316 µM, first compound 0.03 µM) was 89.6%, the viability, T/C (second compound 0.316 µM, first compound 0.0949 µM) was 101% and the viability, T/C (second compound 0.316 µM, first compound 0.3 µM) was 99.7%. For the same compound, the viability, T/C (second compound 0.316 µM, first compound 0.949 µM) was 58.9%, the viability, T/C (second compound 0.316 µM, first compound 3 µM) was 68.4% and the viability, T/C (second compound 1 µM, first compound 0.00949 µM) was 79.7%. For the same compound, the viability, T/C (second compound 1 µM, first compound 0.03 µM) was 101%, the viability, T/C (second compound 1 µM, first compound 0.0949 µM) was 93.9% and the viability, T/C (second compound 1 µM, first compound 0.3 µM) was 76.5%. The viability, T/C (second compound 1 µM, first compound 0.949 µM) was 59.1%, the viability, T/C (second compound 1 µM, first compound 3 µM) was 56.1% and the viability, T/C (second compound 3.16 µM, first compound 0.00949 µM) was 91.3%. The viability, T/C (second compound 3.16 µM, first compound 0.03 µM) was 97%, the viability, T/C (second compound 3.16 µM, first compound 0.0949 µM) was 84.9% and the viability, T/C (second compound 3.16 µM, first compound 0.3 µM) was 99%. It also gave a viability, T/C (second compound 3.16 µM, first compound 0.949 µM) of 62.7%, a viability, T/C (second compound 3.16 µM, first compound 3 µM) of 56.6% and a viability, T/C (second compound 10 µM, first compound 0.00949 µM) of 93.1%. It also gave a viability, T/C (second compound 10 µM, first compound 0.03 µM) of 87.2%, a viability, T/C (second compound 10 µM, first compound 0.0949 µM) of 71.8% and a viability, T/C (second compound 10 µM, first compound 0.3 µM) of 106%. The viability, T/C (second compound 10 µM, first compound 0.949 µM) was 82% and the viability, T/C (second compound 10 µM, first compound 3 µM) was 44.5%.
Compound CC1COCCN1c1cc(C2(S(C)(=N)=O)CC2)nc(-c2ccnc3[nH]ccc23)n1 (configuration not stated) + Cc1cncc(-c2nc(NCCc3c[nH]c4ccccc34)c3ncn(C(C)C)c3n2)c1 has an IC50 [1] greater than 10 µM, an IC50 [2] greater than 10 µM and an IC50 [3] greater than 10 µM. The IC50 [4] was greater than 10 µM, the IC50 [5] was less than 0.0316 µM and the viability, T/C [6] was 99%. The viability, T/C [7] was 90.3%, the viability, T/C [8] was 95.1% and the viability, T/C [9] was 95.1%. The viability, T/C [10] was 93%, the viability, T/C [11] was 81.2% and the viability, T/C [12] was 80.7%. For the same compound, the viability, T/C [13] was 71%, the viability, T/C [14] was 61.6% and the viability, T/C [15] was 91.2%. The viability, T/C [16] was 92.7%, the viability, T/C [17] was 78.1% and the viability, T/C [18] was 73.9%. For the same compound, the viability, T/C [19] was 70.1%, the viability, T/C [20] was 78.7% and the viability, T/C [21] was 77.2%. For the same compound, the viability, T/C [22] was 63.3%, the viability, T/C [23] was 64.7% and the viability, T/C [24] was 81.8%. It also gave a viability, T/C [25] of 76%, a viability, T/C [26] of 81.8% and a viability, T/C [27] of 83.1%. For the same compound, the viability, T/C [28] was 71.3%, the viability, T/C [29] was 59.7% and the viability, T/C [30] was 11.2%. It also gave a viability, T/C [31] of 14.3%, a viability, T/C [32] of 20% and a viability, T/C [33] of 15.1%. The viability, T/C [34] was 14% and the viability, T/C [35] was 11.1%.
In the case of COc1cccc2c1C(=O)c1c(O)c3c(c(O)c1C2=O)CC(O)(C(=O)CO)CC3OC1CC(N)C(O)C(C)O1 (configuration not stated) + Cc1ccccc1N=Nc1ccc(NC(=O)c2ccnn2C)c(C)c1, the IC50 [1] is reported as greater than 10 µM, the IC50 [2] is reported as 8.8 µM and the IC50 [3] is reported as greater than 10 µM. The IC50 [4] was greater than 10 µM, the IC50 [5] was greater than 10 µM and the viability, T/C [6] was 87%. For the same compound, the viability, T/C [7] was 92.3%, the viability, T/C [8] was 102% and the viability, T/C [9] was 91.7%. It also gave a viability, T/C [10] of 83.3%, a viability, T/C [11] of 60.2% and a viability, T/C [12] of 80.4%. It also gave a viability, T/C [13] of 92.6%, a viability, T/C [14] of 95.9% and a viability, T/C [15] of 85.3%. For the same compound, the viability, T/C [16] was 72.2%, the viability, T/C [17] was 47.2% and the viability, T/C [18] was 97.2%. For the same compound, the viability, T/C [19] was 99%, the viability, T/C [20] was 102% and the viability, T/C [21] was 86.3%. It also gave a viability, T/C [22] of 81.6%, a viability, T/C [23] of 71.9% and a viability, T/C [24] of 88.3%. For the same compound, the viability, T/C [25] was 92.1%, the viability, T/C [26] was 97.7% and the viability, T/C [27] was 107%. It also gave a viability, T/C [28] of 86.8%, a viability, T/C [29] of 78% and a viability, T/C [30] of 95.2%. It also gave a viability, T/C [31] of 95.1%, a viability, T/C [32] of 94.4% and a viability, T/C [33] of 98.7%. It also gave a viability, T/C [34] of 96% and a viability, T/C [35] of 78.7%.
Compound COc1cccc2c1C(=O)c1c(O)c3c(c(O)c1C2=O)CC(O)(C(=O)CO)CC3OC1CC(N)C(O)C(C)O1 (configuration not stated) + CC(CO)NC(=O)c1cc(-c2ccc(Cl)cc2)nn(-c2cnn(C)c2)c1=O has an IC50 [1] of 4.49 µM, an IC50 [2] of 5.32 µM and an IC50 [3] of 3.76 µM. It also gave an IC50 [4] of 3.43 µM, an IC50 [5] of 1.62 µM and a viability, T/C [6] of 103%. The viability, T/C [7] was 104%, the viability, T/C [8] was 87.8% and the viability, T/C [9] was 78.3%. It also gave a viability, T/C [10] of 58.3%, a viability, T/C [11] of 31.8% and a viability, T/C [12] of 98.3%. For the same compound, the viability, T/C [13] was 100%, the viability, T/C [14] was 90.4% and the viability, T/C [15] was 81.6%. The viability, T/C [16] was 65.1%, the viability, T/C [17] was 32.5% and the viability, T/C [18] was 96.7%. The viability, T/C [19] was 111%, the viability, T/C [20] was 98.4% and the viability, T/C [21] was 70.7%. The viability, T/C [22] was 58.9%, the viability, T/C [23] was 27.1% and the viability, T/C [24] was 85.6%. For the same compound, the viability, T/C [25] was 99.2%, the viability, T/C [26] was 88.7% and the viability, T/C [27] was 57.6%. For the same compound, the viability, T/C [28] was 59.3%, the viability, T/C [29] was 27% and the viability, T/C [30] was 90.5%. It also gave a viability, T/C [31] of 76.1%, a viability, T/C [32] of 72.8% and a viability, T/C [33] of 58%. It also gave a viability, T/C [34] of 40.3% and a viability, T/C [35] of 6.01%.
For CC1COCCN1c1cc(C2(S(C)(=N)=O)CC2)nc(-c2ccnc3[nH]ccc23)n1 (configuration not stated), the viability, T/C (compound 0.0316 µM) was 103% and 90.3% and 112%, the viability, T/C (compound 0.1 µM) was 108% and 97% and 92.9% and the viability, T/C (compound 0.316 µM) was 92.2% and 95% and 95.2%. The viability, T/C (compound 1 µM) was 105% and 97.5% and 94.2%, the viability, T/C (compound 3.16 µM) was 89.7% and 90.8% and 96.2% and the viability, T/C (compound 10 µM) was 91.8% and 83.7% and 83.1%. The IC50 (curve of compound) was greater than 10 µM.
